Results on one compound are retold here after the NIST ThermoML archive (doi:10.1016/j.fluid.2011.01.021).

Molecules are shown by their SMILES. Numbers after ± are expanded uncertainties.

Data set [1] in a line: refractive index (Na D-line) (dimensionless). The note with it: 298.15 K; 101.33 kPa; Liquid; Standard Abbe refractometry.
For data set [2] the following is noted: 298.15 K; 101.33 kPa; Liquid; Vibrating tube method.

For the compound `CCOS(=O)(=O)[O-].CCn1cc[n+](C)c1` [1-ethyl-3-methylimidazolium ethyl sulfate], in data set [1], the refractive index was determined as 1.4791 ± 0.0007. In data set [2], the mass density was 1237.23 ± 0.43 kg/m3.
